Measurements from patent US20250276983A1, “COMPOUNDS AND METHODS FOR MODULATING HER2” (IAMBIC THERAPEUTICS, INC., priority 2022, published 2025).
Read-outs that look alike come from different tables or passages of the source.

Assays:
Assay type in all cases: cell-based
BaF3_HER2WT cells = assay: Cell growth inhibition assay, BaF3_HER2WT; conditions: 3 days treatment, CellTiterGlo 2.0, read-out: HER2 WT IC50 (nM), cell growth inhibition
BaF3_EGFRWT cells = assay: Cell growth inhibition assay, BaF3_EGFRWT; conditions: 80 ng/mL recombinant human EGF, 3 days treatment, CellTiterGlo 2.0, read-out: EGFR WT IC50 (nM), cell growth inhibition
BaF3_HER2YVMA cells = assay: Cell growth inhibition assay, BaF3_HER2YVMA; conditions: BaF3_HER2YVMA cells, 3 days treatment, CellTiterGlo 2.0, read-out: HER2-YVMA IC50 (nM), cell growth inhibition

| IC50 (BaF3_HER2WT cells; 72 h) [nM] | IC50 (BaF3_EGFRWT cells; 72 h) [nM] | IC50 (BaF3_HER2YVMA cells; 72 h) [nM] | IC50 (BaF3_HER2WT cells) [nM] | IC50 (BaF3_HER2YVMA cells) [nM] | IC50 (BaF3_EGFRWT cells) [nM] | Structure (SMILES) |
| --- | --- | --- | --- | --- | --- | --- |
| 500 to 1500 | 1500 to 5000 | 1500 to 5000 | – | – | – | Cc1cc(Nc2ncnn3ccc(C4CC5CCC4CN5C(=O)/C=C/CN(C)C)c23)ccc1Oc1ccn2ncnc2c1 (single isomer, unassigned) [Examples 137 and 138, second eluting isomer, (E)-1-(5-(4-((4-([1,2,4]triazolo[1,5-a]pyridin-7-yloxy)-3-methylphenyl)amino)pyrrolo[2,1-f][1,2,4]triazin-5-yl)-2-azabicyclo[2.2.2]octan-2-yl)-4-(dimethylamino)but-2-en-1-one] |
| – | 1500 to 5000 | – | < 200 | < 200 | – | C=CC(=O)N1CC2CCC1CC2c1ccn2ncnc(Nc3ccc(Oc4ccn5ncnc5c4)c(C)c3)c12 (single isomer, unassigned) [Examples 139 and 140, first eluting isomer, 1-(5-(4-((4-([1,2,4]triazolo[1,5-a]pyridin-7-yloxy)-3-methylphenyl)amino)pyrrolo[2,1-f][1,2,4]triazin-5-yl)-2-azabicyclo[2.2.2]octan-2-yl)prop-2-en-1-one] |
| < 200 | 1500 to 5000 | – | – | 500 to 1500 | – | C=C(CN(C)C)C(=O)N1CCCC(c2ccn3ncnc(Nc4ccc(Oc5ccn6ncnc6c5)c(C)c4)c23)CC1 (single isomer, unassigned) [Examples 143 and 144, first eluting isomer, 1-(4-(4-((4-([1,2,4]triazolo[1,5-a]pyridin-7-yloxy)-3-methylphenyl)amino)pyrrolo[2,1-f][1,2,4]triazin-5-yl)azepan-1-yl)-2-((dimethylamino)methyl)prop-2-en-1-one] |
| < 200 | – | – | – | 200 to 500 | 1500 to 5000 | Cc1cc(Nc2ncnn3ccc(C4CCCN(C(=O)C(F)Cl)CC4)c23)ccc1Oc1ccn2ncnc2c1 (single isomer, unassigned) [Examples 145, 146, 147 and 148, first eluting isomer, 1-(4-(4-((4-([1,2,4]triazolo[1,5-a]pyridin-7-yloxy)-3-methylphenyl)amino)pyrrolo[2,1-f][1,2,4]triazin-5-yl)azepan-1-yl)-2-chloro-2-fluoroethan-1-one] |
| 200 to 500 | 1500 to 5000 | 500 to 1500 | – | – | – | Cc1cc(Nc2ncnn3ccc([C@@H]4CCCN(C(=O)[C@H](F)Cl)CC4)c23)ccc1Oc1ccn2ncnc2c1 (single isomer, unassigned) [Examples 145, 146, 147 and 148, fourth eluting isomer] |
| – | – | – | < 200 | < 200 | 500 to 1500 | Cc1cc(Nc2ncnn3ccc(C4CCCN(C(=O)C(F)Cl)CC4)c23)ccc1Oc1ccn2ncnc2c1 (single isomer, unassigned) [Examples 145, 146, 147 and 148, second eluting isomer, 1-(4-(4-((4-([1,2,4]triazolo[1,5-a]pyridin-7-yloxy)-3-methylphenyl)amino)pyrrolo[2,1-f][1,2,4]triazin-5-yl)azepan-1-yl)-2-chloro-2-fluoroethan-1-one] |
| – | – | – | 200 to 500 | 500 to 1500 | 1500 to 5000 | Cc1cc(Nc2ncnn3ccc(C4CCCN(C(=O)C(F)Cl)CC4)c23)ccc1Oc1ccn2ncnc2c1 (single isomer, unassigned) [Examples 145, 146, 147 and 148, third eluting isomer, 1-(4-(4-((4-([1,2,4]triazolo[1,5-a]pyridin-7-yloxy)-3-methylphenyl)amino)pyrrolo[2,1-f][1,2,4]triazin-5-yl)azepan-1-yl)-2-chloro-2-fluoroethan-1-one] |
| 200 to 500 | 1500 to 5000 | 1500 to 5000 | – | – | – | Cc1cc(Nc2ncnn3ccc(C4CCN(C(=O)[C@H](F)Cl)CC4)c23)ccc1Oc1ccn2ncnc2c1 (single isomer, unassigned) [Examples 173 and 174, first eluting isomer] |
| < 200 | 200 to 500 | < 200 | – | – | – | C=CC(=O)N1CCCC(c2ccn3ncnc(Nc4ccc(Oc5ccn6ncnc6c5)c(C)c4)c23)CC1 (stereo not drawn) [Example 9, 1-(4-(4-((4-([1,2,4]triazolo[1,5-a]pyridin-7-yloxy)-3-methylphenyl)amino)pyrrolo[2,1-f][1,2,4]triazin-5-yl)azepan-1-yl)prop-2-en-1-one] |

More lines, now with the values behind:

| Structure (SMILES) | IC50 (BaF3_HER2WT cells; 72 h) [nM] | IC50 (BaF3_EGFRWT cells; 72 h) [nM] | IC50 (BaF3_HER2YVMA cells; 72 h) [nM] | IC50 (BaF3_HER2WT cells) [nM] | IC50 (BaF3_HER2YVMA cells) [nM] | IC50 (BaF3_EGFRWT cells) [nM] |
| --- | --- | --- | --- | --- | --- | --- |
| C=CC(=O)N1CC2CCC1CC2c1ccn2ncnc(Nc3ccc(Oc4ccn5ncnc5c4)c(C)c3)c12 (single isomer, unassigned) [Examples 139 and 140, second eluting isomer, 1-(5-(4-((4-([1,2,4]triazolo[1,5-a]pyridin-7-yloxy)-3-methylphenyl)amino)pyrrolo[2,1-f][1,2,4]triazin-5-yl)-2-azabicyclo[2.2.2]octan-2-yl)prop-2-en-1-one] | – | – | – | 500 to 1500 | 1500 to 5000 | 1500 to 5000 |
| C=C(CN(C)C)C(=O)N1CCCC(c2ccn3ncnc(Nc4ccc(Oc5ccn6ncnc6c5)c(C)c4)c23)CC1 (single isomer, unassigned) [Examples 143 and 144, second eluting isomer, 1-(4-(4-((4-([1,2,4]triazolo[1,5-a]pyridin-7-yloxy)-3-methylphenyl)amino)pyrrolo[2,1-f][1,2,4]triazin-5-yl)azepan-1-yl)-2-((dimethylamino)methyl)prop-2-en-1-one] | – | – | – | < 200 | < 200 | 1500 to 5000 |
| Cc1cc(Nc2ncnn3ccc(C4CN(C(=O)/C=C/C5CCCN5C)C4)c23)ccc1Oc1ccn2ncnc2c1 (single isomer, unassigned) [Examples 171 and 172, second eluting isomer, (E)-1-(3-(4-((4-([1,2,4]triazolo[1,5-a]pyridin-7-yloxy)-3-methylphenyl)amino)pyrrolo[2,1-f][1,2,4]triazin-5-yl)azetidin-1-yl)-3-(1-methylpyrrolidin-2-yl)prop-2-en-1-one] | < 200 | 1500 to 5000 | < 200 | – | – | – |
| Cc1cc(Nc2ncnn3ccc(C4CCN(C(=O)[C@@H](F)Cl)CC4)c23)ccc1Oc1ccn2ncnc2c1 (single isomer, unassigned) [Examples 173 and 174, second eluting isomer] | < 200 | 1500 to 5000 | < 200 | – | – | – |
| Cc1cc(Nc2ncnn3ccc(C4CC5CCC4CN5C(=O)/C=C/CN(C)C)c23)ccc1Oc1ccn2ncnc2c1 (single isomer, unassigned; first eluting) [Examples 137 and 138, first eluting isomer] | – | – | – | < 200 | 200 to 500 | 1500 to 5000 |
| C=CC(=O)N1CC(c2ccn3ncnc(Nc4ccc(Oc5ccn6ncnc6c5)c(C)c4)c23)C1 [Example 3, 1-(3-(4-((4-([1,2,4]triazolo[1,5-a]pyridin-7-yloxy)-3-methylphenyl)amino)pyrrolo[2,1-f][1,2,4]triazin-5-yl)azetidin-1-yl)prop-2-en-1-one] | < 200 | 500 to 1500 | < 200 | – | – | – |
| C=CC(=O)NC1CCN(C(=O)c2ccn3ncnc(Nc4ccc(Oc5ccn6ncnc6c5)c(C)c4)c23)C1 (stereo not drawn) [Example 4, N-(1-(4-((4-([1,2,4]triazolo[1,5-a]pyridin-7-yloxy)-3-methylphenyl)amino)pyrrolo[2,1-f][1,2,4]triazine-5-carbonyl)pyrrolidin-3-yl)acrylamide] | < 200 | 1500 to 5000 | < 200 | – | – | – |
| C=CC(=O)N1CC2(C1)CN(c1ccn3ncnc(Nc4cnc(Oc5ccn6ncnc6c5)c(Cl)c4)c13)C2 [Example 15, 1-(6-(4-((6-([1,2,4]triazolo[1,5-a]pyridin-7-yloxy)-5-chloropyridin-3-yl)amino)pyrrolo[2,1-f][1,2,4]triazin-5-yl)-2,6-diazaspiro[3.3]heptan-2-yl)prop-2-en-1-one] | 1500 to 5000 | 1500 to 5000 | > 5000 | – | – | – |
| C=CC(=O)N1CC2(CC(c3ccn4ncnc(Nc5ccc(Oc6ccn7ncnc7c6)c(C)c5)c34)C2)C1 [Example 17, 1-(6-(4-((4-([1,2,4]triazolo[1,5-a]pyridin-7-yloxy)-3-methylphenyl)amino)pyrrolo[2,1-f][1,2,4]triazin-5-yl)-2-azaspiro[3.3]heptan-2-yl)prop-2-en-1-one] | < 200 | 1500 to 5000 | < 200 | – | – | – |
| C=C(C(=O)O)C(=O)N1CCC(c2ccn3ncnc(Nc4ccc(Oc5ccn6ncnc6c5)c(C)c4)c23)CC1 [Example 20, 2-(4-(4-((4-([1,2,4]triazolo[1,5-a]pyridin-7-yloxy)-3-methylphenyl)amino)pyrrolo[2,1-f][1,2,4]triazin-5-yl)piperidine-1-carbonyl)acrylic acid] | 1500 to 5000 | 1500 to 5000 | 1500 to 5000 | – | – | – |
| Cc1cc(Nc2ncnn3ccc(C4CCN(C(=O)/C=C/CN5CCN(C)CC5)CC4)c23)ccc1Oc1ccn2ncnc2c1 [Example 24, (E)-1-(4-(4-((4-([1,2,4]triazolo[1,5-a]pyridin-7-yloxy)-3-methylphenyl)amino)pyrrolo[2,1-f][1,2,4]triazin-5-yl)piperidin-1-yl)-4-(4-methylpiperazin-1-yl)but-2-en-1-one] | < 200 | 1500 to 5000 | 500 to 1500 | – | – | – |
| Cc1cc(Nc2ncnn3ccc(C4CCN(C(=O)/C=C/[C@H]5CCCN5C)CC4)c23)ccc1Oc1ccn2ncnc2c1 [Example 25, (R,E)-1-(4-(4-((4-([1,2,4]triazolo[1,5-a]pyridin-7-yloxy)-3-methylphenyl)amino)pyrrolo[2,1-][1,2,4]triazin-5-yl)piperidin-1-yl)-3-(1-methylpyrrolidin-2-yl)prop-2-en-1-one] | < 200 | 1500 to 5000 | < 200 | – | – | – |
